Measurements from the supplement of paper PMC10307832.

Columns and labels:
Assay in all cases: relative viability (nuclei count vs DMSO), 5 days (fraction); higher = more cells survive
Linsitinib + Foretinib = compound: C[C@]1(O)C[C@@H](c2nc(-c3ccc4ccc(-c5ccccc5)nc4c3)c3c(N)nccn32)C1 [Linsitinib] + COc1cc2c(Oc3ccc(NC(=O)C4(C(=O)Nc5ccc(F)cc5)CC4)cc3F)ccnc2cc1OCCCN1CCOCC1 [Foretinib] (partner 0.25 µM)
Procedure, shortened: (§1)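 Five library-drug doses in √10 steps were combined with a fixed anchor-drug dose, or a single drug was given alone, by pin tool to lung cancer cell lines in 1536-well plates the day after seeding. Nuclei were stained and counted after 5 days. Relative viability is the nuclei count in treated wells over that in vehicle wells, taken as the median of duplicate plates.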

Linsitinib + Luminespib = compound: C[C@]1(O)C[C@@H](c2nc(-c3ccc4ccc(-c5ccccc5)nc4c3)c3c(N)nccn32)C1 [Linsitinib] + CCNC(=O)c1noc(-c2cc(C(C)C)c(O)cc2O)c1-c1ccc(CN2CCOCC2)cc1 [Luminespib] (partner 0.01 µM)
Procedure, shortened: as §1

Ispinesib + Vorinostat = compound: Cc1ccc(C(=O)N(CCCN)[C@@H](c2nc3cc(Cl)ccc3c(=O)n2Cc2ccccc2)C(C)C)cc1 [Ispinesib] + O=C(CCCCCCC(=O)Nc1ccccc1)NO [Vorinostat] (partner 1 µM)
Procedure, shortened: as §1

Linsitinib + Vorinostat = compound: C[C@]1(O)C[C@@H](c2nc(-c3ccc4ccc(-c5ccccc5)nc4c3)c3c(N)nccn32)C1 [Linsitinib] + O=C(CCCCCCC(=O)Nc1ccccc1)NO [Vorinostat] (partner 1 µM)
Procedure, shortened: as §1

## UMC-11
Linsitinib + Foretinib; first compound 0.01 µM
  relative viability: 0.976
Linsitinib + Foretinib; first compound 0.03162 µM
  relative viability: 0.89
Linsitinib + Foretinib; first compound 0.1 µM
  relative viability: 1.03
Linsitinib + Foretinib; first compound 1 µM
  relative viability: 1.02
Linsitinib + Luminespib; first compound 0.01 µM
  relative viability: 1.04
Linsitinib + Luminespib; first compound 0.03162 µM
  relative viability: 0.717
Linsitinib + Luminespib; first compound 0.1 µM
  relative viability: 0.992
Linsitinib + Luminespib; first compound 1 µM
  relative viability: 1.02
Ispinesib + Vorinostat; first compound 0.001 µM
  relative viability: 0.308
Ispinesib + Vorinostat; first compound 0.003162 µM
  relative viability: 0.459
Ispinesib + Vorinostat; first compound 0.01 µM
  relative viability: 0.327
Ispinesib + Vorinostat; first compound 0.03162 µM
  relative viability: 0.281
Ispinesib + Vorinostat; first compound 0.1 µM
  relative viability: 0.319
Linsitinib + Vorinostat; first compound 0.01 µM
  relative viability: 0.369
Linsitinib + Vorinostat; first compound 0.03162 µM
  relative viability: 0.389
Linsitinib + Vorinostat; first compound 0.1 µM
  relative viability: 0.357
Linsitinib + Vorinostat; first compound 0.3162 µM
  relative viability: 0.217
Linsitinib + Vorinostat; first compound 1 µM
  relative viability: 0.386
